The text below walks through data of article PMC5334708, “Mosquitocidal Activity and Mode of Action of the Isoxazoline Fluralaner” (International Journal of Environmental Research and Public …, 2017).

The target in assay [1] is T1, mammalian GABAA α1β3γ2 receptor (Homo sapiens, UniProt P14867+P18507+P28472).
T1 construct: gene GABRA1; with GABRB3 (β3) and GABRG2 (γ2) subunits
The experiment in a line: whole-cell planar patch clamp, block of GABA EC80 current in transfected HEK293 cells. Type of assay: cell-based. In general terms: Patch clamp records ionic current or voltage across a cell membrane.

Assay [2] deals with T1, mammalian GABAA α1β3γ2 receptor. Put plainly: whole-cell planar patch clamp, block of GABA EC80 current in transfected HEK293 cells (antagonist positive control). Type of assay: cell-based.

A word on the IC50: it is the concentration that gives 50% inhibition. A low value points to greater potency in that assay.

T1 sequence (P14867 28-456): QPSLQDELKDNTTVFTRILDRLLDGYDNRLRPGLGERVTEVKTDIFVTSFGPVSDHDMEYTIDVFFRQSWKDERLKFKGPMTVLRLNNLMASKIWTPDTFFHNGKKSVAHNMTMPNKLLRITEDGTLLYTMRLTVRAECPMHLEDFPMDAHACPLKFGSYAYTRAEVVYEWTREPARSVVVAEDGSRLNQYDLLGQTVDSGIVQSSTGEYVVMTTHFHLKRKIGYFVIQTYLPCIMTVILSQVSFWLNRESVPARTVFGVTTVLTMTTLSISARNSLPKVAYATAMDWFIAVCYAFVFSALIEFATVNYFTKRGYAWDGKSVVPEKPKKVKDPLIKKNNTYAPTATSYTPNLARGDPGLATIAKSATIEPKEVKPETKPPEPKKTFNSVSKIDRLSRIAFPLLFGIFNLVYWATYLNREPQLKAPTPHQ
T1 sequence (P28472 26-473): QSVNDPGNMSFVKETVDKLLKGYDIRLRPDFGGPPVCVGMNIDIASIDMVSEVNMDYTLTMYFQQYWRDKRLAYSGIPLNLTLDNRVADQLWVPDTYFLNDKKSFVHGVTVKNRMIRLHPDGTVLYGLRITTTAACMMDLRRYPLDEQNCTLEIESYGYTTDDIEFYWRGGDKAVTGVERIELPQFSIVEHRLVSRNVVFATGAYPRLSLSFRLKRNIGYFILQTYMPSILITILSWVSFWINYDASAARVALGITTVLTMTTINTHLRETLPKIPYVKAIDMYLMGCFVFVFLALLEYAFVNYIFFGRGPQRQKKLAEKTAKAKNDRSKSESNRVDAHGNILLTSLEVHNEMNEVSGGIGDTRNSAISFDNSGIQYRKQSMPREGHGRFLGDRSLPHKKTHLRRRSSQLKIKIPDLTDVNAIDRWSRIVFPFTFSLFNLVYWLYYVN
T1 sequence (P18507 40-475): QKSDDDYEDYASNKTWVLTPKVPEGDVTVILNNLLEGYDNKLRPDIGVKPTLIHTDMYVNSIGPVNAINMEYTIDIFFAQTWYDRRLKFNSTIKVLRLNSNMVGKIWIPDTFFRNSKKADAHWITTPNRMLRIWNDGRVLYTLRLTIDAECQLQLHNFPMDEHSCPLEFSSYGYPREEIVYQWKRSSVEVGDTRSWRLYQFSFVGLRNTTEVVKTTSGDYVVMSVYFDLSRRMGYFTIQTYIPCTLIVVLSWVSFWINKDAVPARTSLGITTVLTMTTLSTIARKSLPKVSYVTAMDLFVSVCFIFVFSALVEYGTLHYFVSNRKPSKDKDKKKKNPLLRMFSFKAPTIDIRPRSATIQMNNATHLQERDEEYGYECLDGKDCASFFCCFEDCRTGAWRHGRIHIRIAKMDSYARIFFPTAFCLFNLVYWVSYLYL

Take `N#Cc1nn(-c2c(Cl)cc(C(F)(F)F)cc2Cl)c(N)c1[S+]([O-])C(F)(F)F` (centres unmarked) [fipronil]: in assay [1], 4.9 µM corresponded to half-maximal inhibition (IC50).

For `C=C(C)[C@@H]1[C@H]2OC(=O)[C@@H]1[C@]1(O)C[C@H]3OC34C(=O)O[C@H]2[C@@]41C.CC(C)(O)[C@@H]1[C@H]2OC(=O)[C@@H]1[C@]1(O)C[C@H]3OC34C(=O)O[C@H]2[C@@]41C` (some centres unmarked) [picrotoxin], the IC50 in assay [2] stood at 3.9 µM.
